How the values were obtained:
[1] = tested on: BGC823; assay: MTT inhibition of tumor cells in vitro (Example 3); assay type: cell-based, Human; conditions: Homo sapiens, BGC-823, 48 h, 40 μg/mL, read-out: Inhibition rate, BGC823
Method: (§1) Human resources tumor cell line […], […], HT29, MCF-7 and A875 were provided by Cancer Hospital, Chinese Academy of Medical Sciences.
(§2) Cells were passaged every 2 or 3 days, and all the experiments were carried out on exponentially growing cells.
(§3) All cells were cultured in a humidified atmosphere (5% CO2 and […]), and passaged every 2 or 3 days. Cells were harvested on exponentially growing phase, and cell suspension was prepared with 2×10^4 cells/mL, added with 100 μL per well of 96-well plates, and cultured for 24 h in incubator. 100 μL medium without cells was added per well as blank group.
(§4) Compound (1), (2), (3), (4), (7) or (8) was dissolved in DMSO respectively, and diluted with 1640 medium at a final concentration of 400 μg/mL, so as to that of the Cisplatin. Cells were divided into 9 groups, they were blank group, model group, Compound (1), (2), (3), (4), (7) and (8) groups, and Cisplatin group as the positive one, 6 wells per group.
(§5) Before drug administration, supernatant of each well was removed and fresh 1640 medium was added, 180 μL per well. Compounds and Cisplatin were added with 20 μL per well respectively at a final concentration of 40 μg/mL. Wells of blank and model groups were added with 0.5% DMSO, 20 μL per well. 48 hours later, 20 μL MTT was added per well and continued to culture for 4 hours, then the supernatant was replaced carefully and DMSO was added with 150 μL per well to end the experiment. The 96-well plates were shaken for 10 mins and read the absorbance at 490 nm. The Inhibition rate was calculated.
(§6) Inhibition rate=[(ODmodel−ODblank)−(ODdrugs−ODblank)]/(ODmodel−ODblank)×100%
(§7) The MTT experiment was repeated three times.

[2] = tested on: A875; assay: MTT inhibition of tumor cells in vitro (Example 3); assay type: cell-based, Human; conditions: Homo sapiens, A875, 40 μg/mL, 48 hours, read-out: Inhibition rate, A875
Method: as §1, §2, §3, §4, §5, §6, §7

[3] = tested on: HT29; assay: MTT inhibition of tumor cells in vitro (Example 3); assay type: cell-based, Human; conditions: Homo sapiens, HT-29, 48 h, 40 μg/mL, read-out: Inhibition rate, HT29
Method: as §1, §2, §3, §4, §5, §6, §7

[4] = tested on: MCF-7; assay: MTT inhibition of tumor cells in vitro (Example 3); assay type: cell-based, Human; conditions: Homo sapiens, MCF7, 40 μg/mL, 48 hours, read-out: Inhibition rate, MCF-7
Method: as §1, §2, §3, §4, §5, §6, §7

[5] = tested on: HepG2; assay: MTT inhibition of tumor cells in vitro (Example 3); assay type: cell-based, Human; conditions: Homo sapiens, HepG2, 48 h, 40 μg/mL, read-out: Inhibition rate, HepG2
[6] = tested on: HT29 human colon cancer; assay: Anti-HT29 human colon cancer in BALB/c (nu/nu) nude mice; assay type: in vivo; conditions: for body weight of HT29-bearing nude mice / tumor volume of HT29-bearing nude mice: mg/kg BW: total saponins 1.5, Compound 1, combination 1 & 19, PTX 20, Sc
Method: Human resources Colon cancer cell line HT29 was cultured in the same condition as the experiment 4. […] Mice were randomly assigned into 7 groups: […] The body weight and the tumor volume were measured and recorded weekly. The tumor volume was calculated according to the formula below. […] The tumors were departed and weighed.

Structure (SMILES): COC(=O)C1CC(O[C@H]2CC[C@]3(C)[C@H]4C=CC5[C@@H]6CC(C)(C)CC[C@]6(C(=O)OC6OC(C)C(OC(=O)/C=C/c7ccc(C)cc7)C(OC(C)=O)C6OC6CC(C)C(O)C(O)C6O)[C@H](O)C[C@@]5(C)[C@]4(C)CC[C@H]3[C@]2(C)C=O)C(OC2OC(CO)C(O)C(O)C2O)C(OC2OCC(O)C(O)C2O)C1O (stereo partly shown) [Compound (2), sinocrassuloside VII]
- inhibition at 40 µg/mL [1]: > 90%
- inhibition at 40 µg/mL [2]: 77.5 ± 9.94%
- inhibition at 40 µg/mL [3]: > 90%
- inhibition at 40 µg/mL [4]: 91 ± 8.68%
- inhibition at 40 µg/mL [5]: > 90%
- body weight of HT29-bearing nude mice ([6]; 0 W): 20.10 ± 1.35
- body weight of HT29-bearing nude mice ([6]; 1 W): 22.10 ± 0.90
- tumor volume of HT29-bearing nude mice ([6]; 1 W): 639.16 ± 539.16
- body weight of HT29-bearing nude mice ([6]; 2 W): 22.90 ± 0.90
- tumor volume of HT29-bearing nude mice ([6]; 2 W): 918.54 ± 469.16
- body weight of HT29-bearing nude mice ([6]; 3 W): 22.70 ± 1.38
- tumor volume of HT29-bearing nude mice ([6]; 3 W): 859.24 ± 691.16
- Inhibition rate ([6]; HT29-bearing nude mice, after 3 weeks, from average tumor mass vs model): 54.87%

— US20170143748A1, “ANTI-TUMOR PHARMACEUTICAL APPLICATION OF PENTACYCLIC TRITERPENE SAPONIN COMPOUNDS OF SZECHUAN MELANDIUM ROOT” (priority 2014, published 2017)
